Results reported in US6949250B2, “Selective algaecides for control of cyanochloronta” (The United States of America as represented by the …, priority 2002, dated 2005).

Experiments:
[1] = tested on: chlorophyll a; experiment: DNA1-19-1 second and third pond efficacy studies: chlorophyll a; type: in vivo; conditions: second and third efficacy study; 1, 0.3, and 0.1 μM
Experimental: (§1) The method described by Schrader et al. (2000) was used to determine the potential for using the anthraquinone derivatives as selective algicides in catfish aquaculture ponds. All catfish ponds used in efficacy tests were maintained using commercial pond management practices and were located at the Thad Cochran Pond Facility, Mississippi State University, Stoneville, Miss. Anthraquinone analogs were dissolved in deionized water before application to water within the limnocorrals.
(§2) Limnocorrals in which test compound was applied to the enclosed water were randomly selected, and control (no test compound applied) limnocorrals were included in each efficacy study. For each sampling, two water samples (250 mL) were obtained from within each limnocorral (approximately 6-8 cm below the water surface and from opposite sides of each limnocorral) and mixed together in a 500 mL sample bottle to provide a representative sample of the water contained within the limnocorral.
In the second study with DNA1-19-1, twelve limnocorrals that were the same size as those used in the first study were placed in another 4-ha earthen catfish pond. […] The sampling regime and procedures used in the first study were followed in a similar manner, except that water samples were obtained before DNA1-19-1 application, 16 hours after application, and at days 2, 4, and 7. […]

[2] = tested on: Oscillatoria perornata; experiment: DNA1-19-1 first pond efficacy study (limnocorrals): O. perornata abundance; type: in vivo
[3] = Detection of DNA1-19-1 in pond water samples; type: physicochemical; conditions: samples collected at and after 24 hours after application to water within limnocorrals
Source text: The attempts to develop a reproducible analytical method to determine the levels of DNA1-19-1 in the pond water were unsuccessful. DNA1-19-1 is believed to bind quickly to suspended soil particles due to the positively charged nature of the 2-methylamino chain; evident by the lack of detection of DNA1-19-1 in the water. Since the levels of suspended soil particles in each water sample varied and an accurate measurement of the soil particles present in each sample could not be obtained, the consistent recoveries of DNA1-19-1 from the particulate portions of water samples could not be achieved.

[4] = tested on: diatoms; experiment: DNA2-59-1 third pond efficacy study: diatom abundance; type: in vivo; conditions: 0.3 μM, from three days after application
Experimental: as §1, §2
(§3) For the third efficacy test with DNA2-59-1, twelve limnocorrals (2.44 m in diameter and 1.53 m high) were placed in a 4-ha earthen pond containing a bloom of O. perornata. […]

[5] = tested on: chlorophyll a; experiment: DNA2-59-1 second pond efficacy study: chlorophyll a; type: in vivo; conditions: 0.3 μM, for three days after application
Experimental: as §1, §2
(§4) In the second efficacy test with DNA2-59-1, six limnocorrals (1.53 m in diameter and 1.53 m high) were placed in a 0.1-ha earthen pond containing a heavy bloom of O. perornata. The same delay in mixing the water within the limnocorrals used in the first efficacy study was utilized. Water within three randomly selected limnocorrals received an application rate of 0.3 μM DNA2-59-1, and the other three limnocorrals were controls. […]

[6] = tested on: 2-methylisoborneol; experiment: DNA2-59-1 third pond efficacy study: MIB levels; type: in vivo; conditions: 0.3 μM, 24 hours after application
Experimental: as §1, §2, §3

[7] = tested on: Oscillatoria agardhii; experiment: DNA2-59-1 second pond efficacy study: Oscillatoria agardhii abundance; type: in vivo; conditions: 0.3 μM
Experimental: as §1, §2, §4

[8] = tested on: 2-methylisoborneol; experiment: DNA2-59-1 first pond efficacy study: MIB levels; type: in vivo; conditions: 0.3 and 1 μM
Experimental: as §1
(§5) Limnocorrals in which test compound was applied to the enclosed water were randomly selected, and control (no test compound applied) limnocorrals were included in each efficacy study. […]
(§6) In the first study, application rates of 0.1 μM (37.7 μg/L), 0.3 μM ([…]), and 1.0 μM (377 μg/L) of DNA2-59-1 were tested using limnocorrals (three replicates per concentration) that were of the same type used for testing DNA1-19-1. […] Water samples were also analyzed to determine the persistence of DNA2-59-1 in the pond water, and this analysis was performed by using high-pressure liquid chromatography (HPLC) (method and results are described later).

[9] = tested on: Oscillatoria geminata; experiment: DNA2-59-1 second pond efficacy study: Oscillatoria geminata abundance; type: in vivo; conditions: 0.3 μM
Experimental: as §1, §2, §4

[10] = tested on: Raphidiopsis brookii; experiment: DNA2-59-1 third pond efficacy study: Raphidiopsis brookii abundance; type: in vivo; conditions: 0.3 μM, one day after application
Experimental: as §1, §2, §3

[11] = tested on: green algae; experiment: DNA2-59-1 first pond efficacy study: green algae abundance; type: in vivo; conditions: first study, 0.1, 0.3 and 1 μM
Experimental: as §1, §5, §6

[12] = tested on: 2-methylisoborneol; experiment: DNA2-59-1 second pond efficacy study: MIB levels; type: in vivo; conditions: 0.3 μM, after three days
Experimental: as §1, §2, §4

[13] = tested on: Anabaena circinalis; experiment: DNA2-59-1 first pond efficacy study: Anabaena circinalis abundance; type: in vivo
Experimental: as §1, §5, §6

[14] = tested on: Cylindrospermopsis spp.; experiment: DNA2-59-1 third pond efficacy study: Cylindrospermopsis spp. abundance; type: in vivo; conditions: 0.3 μM, one day after application
Experimental: as §1, §2, §3

[15] = tested on: Oscillatoria perornata; experiment: DNA2-59-1 second pond efficacy study: O. perornata abundance; type: in vivo; conditions: 0.3 μM, within three days of application
Experimental: as §1, §2, §4

SMILES	chlorophyll a levels compared to controls (result in words) [1]	selectively reducing numbers of O. perornata and MIB levels in pond water (result in words) ([2]; applied at 2 μM)	Numbers of filaments of O. perornata (result in words) ([2]; first study, 2 μM, numbers began to increase within 3 days)	detection in soluble fractions of water samples (result in words) [3]	Numbers of diatoms vs control limnocorrals (result in words) [4]	Chlorophyll a levels (result in words) [5]	Levels of 2-methylisoborneol (result in words) [6]	Numbers of Oscillatoria agardhii (result in words) [7]	decrease of MIB levels compared to controls and 0.1 μM (result in words) [8]	Numbers of Oscillatoria geminata (result in words) [9]	Numbers of Raphidiopsis brookii (result in words) [10]	Numbers of green algae compared to controls (result in words) [11]	Levels of MIB (result in words) [12]	Numbers of Anabaena circinalis compared to controls (result in words) ([13]; 1 μM)	filaments of A. circinalis present (result in words) ([13]; 16 hours after application of 1 μM)	Numbers of Cylindrospermopsis spp. (result in words) [14]	Numbers of O. perornata (result in words) [15]
CCN(CC)CCCC(C)NCc1ccc2c(c1)C(=O)c1ccccc1C2=O.O=P(O)(O)O.O=P(O)(O)O (centres unmarked) [DNA1-19-1, 2-[methylamino-N-(1′-methyl-4′-N,N-diethylaminobutyl)]-9,10-anthraquinone diphosphate]	lack of reduction	effective	significantly reduced	could not be detected													
CC(C)NCc1ccc2c(c1)C(=O)c1ccccc1C2=O [DNA2-59-1, 2-[methylamino-N-(1′-methylethyl)]-9,10-anthraquinone monophosphate]					significantly higher	significantly lower	significantly reduced	not affected	to a greater degree and significantly more	reduced by application of 0.3 μM DNA2-59-1, though not significantly	significantly reduced	not significantly affected	significantly reduced	significantly reduced	no filaments of A. circinalis were observed to be present	significantly reduced	significantly and dramatically reduced
